One may read the Kd as a measure of binding affinity in units of concentration.

Assay [1] concerns Cdlc2 (Dynein light chain 2). In words: Fluorescence polarization binding of FITC-labelled peptides to Cdlc2. Details: species or system Drosophila melanogaster. As to conditions: FITC-labelled peptide 10 nM, PBS pH 7.4, protein concentrations 5–400 μM.
Assay [2] addresses T1, abl-SH3 domain (Homo sapiens, UniProt P00519).
T1 construct: preparation of human abl-SH3 domain [9]; made in house
The experiment in a line: Fluorescence polarization preliminary test with abl-SH3 binding peptide. The note with it: FITC N-terminal labeled peptide. In general terms: Fluorescence polarisation rises when a labelled molecule tumbles more slowly, as on binding a larger partner.

Assay [3] has as its target T2, Translin (Drosophila melanogaster, UniProt Q7JVK6).
T2 sequence (Q7JVK6 1-235): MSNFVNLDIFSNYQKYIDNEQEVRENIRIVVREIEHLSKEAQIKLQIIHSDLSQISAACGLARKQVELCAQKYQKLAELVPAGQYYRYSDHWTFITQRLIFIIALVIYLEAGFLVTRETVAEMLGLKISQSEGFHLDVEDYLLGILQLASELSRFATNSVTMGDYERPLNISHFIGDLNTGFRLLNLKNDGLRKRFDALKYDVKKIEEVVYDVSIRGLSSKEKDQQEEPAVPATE
The experiment in a line: Fluorescence polarization binding of FITC-labelled peptides to Translin. As to conditions: FITC N-terminal labeled peptide 10 nM in PBS pH 7.4, 5 min at room temperature, non-linear regression on three independent experiments.

Assay [4] deals with T3, protein phosphatase 1 (PP1) (Homo sapiens, UniProt P36873).
T3 construct: made in house; host or cells: E. coli BL21(DE3)
T3 sequence (P36873 whole entry): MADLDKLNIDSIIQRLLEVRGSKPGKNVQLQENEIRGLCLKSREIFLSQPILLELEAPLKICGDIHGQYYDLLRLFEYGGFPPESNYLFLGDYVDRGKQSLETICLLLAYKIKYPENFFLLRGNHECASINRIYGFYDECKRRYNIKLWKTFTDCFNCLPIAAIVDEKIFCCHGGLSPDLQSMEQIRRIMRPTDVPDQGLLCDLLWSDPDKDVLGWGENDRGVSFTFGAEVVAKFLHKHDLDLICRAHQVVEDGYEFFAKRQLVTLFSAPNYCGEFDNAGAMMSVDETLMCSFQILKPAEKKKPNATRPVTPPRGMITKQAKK
In words: Fluorescence polarization binding of FITC-labelled peptides to PP1. Further details: species or system H. sapiens.

Where no end group is shown, it is not given here. Some results are limits rather than exact numbers.

T1 sequence (P00519 61-121 limits assumed): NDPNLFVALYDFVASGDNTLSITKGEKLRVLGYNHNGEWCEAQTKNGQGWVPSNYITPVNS

In the case of “ERAAAAENA [mutant of the Cdlc2 native peptide, motif positions mutated to Alanine]”, the “binding to Cdlc2” value in assay [1] was “No binding”. Still for that read-out and setting: under “ERAIQTENA [CG33213/104-112, Cdlc2 native peptide with the IQTE variant motif]” stands “No binding”. Consider GAPTYSPPPPP [GAPTYSPPPPP], for which the Kd in assay [2] stood at 3 ± 0.4 µM.

Consider “PFGTQTSPP [CG32130/215-223, additional peptide containing the canonical TQT motif, reference compound]”, for which, in assay [1], the “binding to Cdlc2” value is “No binding”. “VSASPAAVAAPV (also: FITC label, position not given here) [Mutant]” displayed a Kd in assay [3] greater than 300 µM. For VSASPAAVAAPV [Mutant], in assay [4] (FITC N-terminal labeled peptide 10 nM in PBS pH 7.4, 5 min at room temperature, normalized to extrapolated Bmax, non-linear regression, three independent experiments), the dissociation constant Kd was 65 ± 14 µM. Besides, the “specific binding to PP1” value in assay [4] (result in words) is reported as “retain some affinity”.

These data come from article PMC1283537, “Systematic Discovery of New Recognition Peptides Mediating Protein Interaction Networks” (PLoS Biology, 2005).
